From US12404295B2, “(Hetero)aryl-methyl-thio-beta-D-galactopyranoside derivatives” (Idorsia Pharmaceuticals Ltd, priority 2019, dated 2025) come the findings set out here.

In assay [1] the target is human Gal-3 (hGal-3) (Homo sapiens (Human), UniProt P17931). In words: competitive binding assay: biotinylated hGal-3 binding to microplate-adsorbed asialofetuin (ASF). The method in brief:
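Compounds serially diluted in DMSO compete with asialofetuin for biotinylated human Gal-3; plates are incubated 3 h at 4 °C, washed, then treated 1 h at 4 °C with streptavidin-peroxidase (80 ng/mL) and developed with ABTS. IC50 values are means of several measurements.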

Assay [2] concerns the target human Gal-1 (hGal-1) (Homo sapiens (Human), UniProt P09382). Nature of the assay: competitive binding assay: biotinylated hGal-1 binding to microplate-adsorbed asialofetuin (ASF). The conditions noted are these: Table 15; read-out: IC50 (Galectin-1 inhibition). In short, it runs like this: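 Biotinylated human Gal-1 (300-1000 ng/mL) competes with serially diluted compound for binding to ASF-coated plates, 3 h at 4° C. Bound protein detected with streptavidin-peroxidase and ABTS substrate (spectrophotometric). IC50 given as mean of several measurements.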

Where [3] appears, read: Table 5, read-out: IC50 (Gal-3 inhibition).
Where [4] appears, read: Gal-3 inhibition, binding of biotinylated hGal-3 to ASF, mean values, read-out: IC50.
Where [5] appears, read: Table 10, 2-OMe-Gal inhibitors, read-out: IC50 (Gal-3 inhibition).

Where two headings read alike, the source gives them in different places.

Sequence of human Gal-3 (hGal-3) (P17931 whole entry): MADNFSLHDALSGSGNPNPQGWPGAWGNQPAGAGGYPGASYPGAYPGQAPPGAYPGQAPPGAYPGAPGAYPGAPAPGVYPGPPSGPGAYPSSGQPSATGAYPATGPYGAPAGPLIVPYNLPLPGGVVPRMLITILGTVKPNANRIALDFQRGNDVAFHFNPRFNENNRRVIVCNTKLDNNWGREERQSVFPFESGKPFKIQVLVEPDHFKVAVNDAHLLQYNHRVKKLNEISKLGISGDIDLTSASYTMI
Sequence of human Gal-1 (hGal-1) (P09382 whole entry): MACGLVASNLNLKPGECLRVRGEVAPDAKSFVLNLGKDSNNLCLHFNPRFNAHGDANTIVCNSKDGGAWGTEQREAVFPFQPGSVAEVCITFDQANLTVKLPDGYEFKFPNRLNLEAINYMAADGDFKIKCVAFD

As usually defined, the IC50 is the concentration at which inhibition is half-maximal. As to “(2S,3R,4S,5R,6R)-2-(((S)-((S)-4-Hydroxy-2,2-dimethyltetrahydro-2H-pyran-4-yl)(2-(trifluoromethyl)phenyl)methyl)thio)-6-(hydroxymethyl)-4-(4-(3,4,5-trifluorophenyl)-1H-1,2,3-triazol-1-yl)tetrahydro-2H-pyran-3,5-diol [Example 2.43.102SS.]”, the results for the IC50 in assay [1] (setting [3]) and in assay [2] were 3920 nM and 69500 nM, respectively.

Take `CCO[C@@H]1[C@@H](n2cc(-c3cc(F)c(F)c(F)c3)nn2)[C@@H](O)[C@@H](CO)O[C@H]1SC(c1ncccc1C)C1(O)CCC(F)(F)CC1` (stereo partly drawn) [Example 2.44.126.II., (2R,3R,4S,5R,6S)-6-(((4,4-Difluoro-1-hydroxycyclohexyl)(3-methylpyridin-2-yl)methyl)thio)-5-ethoxy-2-(hydroxymethyl)-4-(4-(3,4,5-trifluorophenyl)-1H-1,2,3-triazol-1-yl)tetrahydro-2H-pyran-3-ol]: the figures for the IC50 in assay [1] (setting [4]) and in assay [2] were 160 nM and 1320 nM, respectively.

For the compound `Cc1nc(C)c([C@@H](S[C@@H]2O[C@H](CO)[C@H](O)[C@H](n3cc(-c4cc(F)c(F)c(F)c4)nn3)[C@H]2O)C(C)(C)O)nc1C` [Example 2.31.119R., (2S,3R,4S,5R,6R)-2-(((R)-2-Hydroxy-2-methyl-1-(3,5,6-trimethylpyrazin-2-yl)propyl)thio)-6-(hydroxymethyl)-4-(4-(3,4,5-trifluorophenyl)-1H-1,2,3-triazol-1-yl)tetrahydro-2H-pyran-3,5-diol], the values for the IC50 in assay [1] (setting [4]) and in assay [2] were 270 nM and 1150 nM, respectively.

`CCn1nnc(C)c1C(S[C@@H]1O[C@H](CO)[C@H](O)[C@H](n2cc(-c3cc(F)c(F)c(F)c3)nn2)[C@H]1OC)C1(O)CCC(F)(F)CC1` (stereo partly drawn) [Example 2.44.138.I., (2R,3R,4S,5R,6S)-6-(((4,4-Difluoro-1-hydroxycyclohexyl)(1-ethyl-4-methyl-1H-1,2,3-triazol-5-yl)methyl)thio)-2-(hydroxymethyl)-5-methoxy-4-(4-(3,4,5-trifluorophenyl)-1H-1,2,3-triazol-1-yl)tetrahydro-2H-pyran-3-ol]: the IC50 stood at 300 nM in assay [1] (setting [5]) and 840 nM in assay [2].

For the compound “(2S,3R,4S,5R,6R)-2-(((R)-(4-Hydroxy-2,2,6,6-tetramethyltetrahydro-2H-pyran-4-yl)(2-(trifluoromethyl)phenyl)methyl)thio)-6-(hydroxymethyl)-4-(4-(3,4,5-trifluorophenyl)-1H-1,2,3-triazol-1-yl)tetrahydro-2H-pyran-3,5-diol [Example 2.42.102R.]”, the IC50 in assay [1] (setting [3]) came to 90 nM; in assay [2] it was 6400 nM.

For `CC(C)c1ccccc1C(CO)S[C@@H]1O[C@H](CO)[C@H](O)[C@H](n2cc(-c3cc(F)c(F)c(F)c3)nn2)[C@H]1O` (stereo partly drawn) [Example 2.30.105., (2S,3R,4S,5R,6R)-2-((2-Hydroxy-1-(2-isopropylphenyl)ethyl)thio)-6-(hydroxymethyl)-4-(4-(3,4,5-trifluorophenyl)-1H-1,2,3-triazol-1-yl)tetrahydro-2H-pyran-3,5-diol], the IC50 in assay [1] (setting [4]) was 400 nM; in assay [2] it was 1730 nM.

Consider `Cc1conc1[C@@H](S[C@@H]1O[C@H](CO)[C@H](O)[C@H](n2cc(-c3cc(F)c(F)c(F)c3)nn2)[C@H]1O)C1(O)CCCCC1` [Example 2.39.120R., (2S,3R,4S,5R,6R)-2-(((R)-(1-Hydroxycyclohexyl)(4-methylisoxazol-3-yl)methyl)thio)-6-(hydroxymethyl)-4-(4-(3,4,5-trifluorophenyl)-1H-1,2,3-triazol-1-yl)tetrahydro-2H-pyran-3,5-diol], for which the IC50 is 200 nM in assay [1] (setting [3]) and 610 nM in assay [2].

Turning to `CCn1ncc(Cl)c1C(S[C@@H]1O[C@H](CO)[C@H](O)[C@H](n2cc(-c3cc(F)c(F)c(F)c3)nn2)[C@H]1OC)C1(O)CCC(F)(F)CC1` (stereo partly drawn) [Example 2.44.139.I., (2R,3R,4S,5R,6S)-6-(((4-Chloro-1-ethyl-1H-pyrazol-5-yl)(4,4-difluoro-1-hydroxycyclohexyl)methyl)thio)-2-(hydroxymethyl)-5-methoxy-4-(4-(3,4,5-trifluorophenyl)-1H-1,2,3-triazol-1-yl)tetrahydro-2H-pyran-3-ol], the half-inhibitory concentration (IC50) in assay [1] (setting [5]) is 620 nM; in assay [2], 3900 nM.

For `CC(C)c1cccnc1[C@H](S[C@@H]1O[C@H](CO)[C@H](O)[C@H](n2cc(-c3cc(F)c(F)c(F)c3)nn2)[C@H]1O)C1(O)CCC(F)(F)CC1` [Example 2.44.132S., (2S,3R,4S,5R,6R)-2-(((S)-(4,4-Difluoro-1-hydroxycyclohexyl)(3-isopropylpyridin-2-yl)methyl)thio)-6-(hydroxymethyl)-4-(4-(3,4,5-trifluorophenyl)-1H-1,2,3-triazol-1-yl)tetrahydro-2H-pyran-3,5-diol], the IC50 in assay [1] (setting [4]) was determined as 2270 nM; in assay [2] it was 4700 nM.

As to `CCn1nnc(C)c1[C@H](S[C@@H]1O[C@H](CO)[C@H](O)[C@H](n2cc(-c3cc(F)c(F)c(F)c3)nn2)[C@H]1OC)C1(O)CCC(F)(F)CC1` [Example 2.44.138S.I., (2R,3R,4S,5R,6S)-6-(((S)-(4,4-Difluoro-1-hydroxycyclohexyl)(1-ethyl-4-methyl-1H-1,2,3-triazol-5-yl)methyl)thio)-2-(hydroxymethyl)-5-methoxy-4-(4-(3,4,5-trifluorophenyl)-1H-1,2,3-triazol-1-yl)tetrahydro-2H-pyran-3-ol], the IC50 in assay [1] (setting [5]) was 13200 nM; in assay [2], > 100000 nM.

On to “(2R,3R,4S,5R,6S)-6-(((R)-(5-Cyclopropyl-3-methylisoxazol-4-yl)(1-hydroxycyclohexyl)methyl)thio)-2-(hydroxymethyl)-5-methoxy-4-(4-(3,4,5-trifluorophenyl)-1H-1,2,3-triazol-1-yl)tetrahydro-2H-pyran-3-ol [Example 2.39.128R.I.]”, for which the IC50 in assay [1] (setting [5]) is 300 nM; in assay [2], 2360 nM.

Regarding `CO[C@@H]1[C@@H](n2cc(-c3cc(F)c(F)c(F)c3)nn2)[C@@H](O)[C@@H](CO)O[C@H]1SC(c1ccccc1C(F)(F)F)C1(O)CCN(C(C)=O)CC1` (stereo partly drawn) [Example 2.48.112.I., 1-(4-Hydroxy-4-((((2S,3R,4S,5R,6R)-5-hydroxy-6-(hydroxymethyl)-3-methoxy-4-(4-(3,4,5-trifluorophenyl)-1H-1,2,3-triazol-1-yl)tetrahydro-2H-pyran-2-yl)thio)(2-(trifluoromethyl)phenyl)methyl)piperidin-1-yl)ethan-1-one], the IC50 in assay [1] (setting [4]) was found to be 190 nM; in assay [2] it was 400 nM.

For `Cc1ccccc1C(S[C@@H]1O[C@H](CO)[C@H](O)[C@H](n2cc(-c3cc(F)c(F)c(F)c3)nn2)[C@H]1O)C1(O)CC(C)C1` (stereo partly drawn) [Example 2.36.102., (2S,3R,4S,5R,6R)-2-(((1-Hydroxy-3-methylcyclobutyl)(o-tolyl)methyl)thio)-6-(hydroxymethyl)-4-(4-(3,4,5-trifluorophenyl)-1H-1,2,3-triazol-1-yl)tetrahydro-2H-pyran-3,5-diol], the IC50 in assay [1] (setting [3]) was 460 nM; in assay [2], 13200 nM.
